Reference: US20200093890A1, “COMPOSITIONS AND METHODS FOR TREATING ALZHEIMER'S DISEASE” (CASE WESTERN RESERVE UNIVERSITY, priority 2017, published 2020)

Test system: APP processing
Test: Immunoblot of APP processing (FIG. 12)
Description: FIG. 12 illustrates an immunoblot showing the effects ISP in combination with a γ-secretase inhibitor on APP processing compared to a γ-secretase inhibitor administered alone or a BACE1 inhibitor administered in combination with a γ-secretase inhibitor. […]

NH2GRKKRRQRRRCDMAEHTMERLKANDSLKLSQEYESI-NH2 [ISP]
effect on APP processing (immunoblot) (ISP in combination with a γ-secretase inhibitor, compared to a γ-secretase inhibitor alone or a BACE1 inhibitor in combination with a γ-secretase inhibitor): substantially inhibited APP processing
suppression of APP amyloidogenic processing by BACE1 (blocking PTPσ with wedge domain peptide mimetic, compared with PTPσ depletion): suppress APP amyloidogenic processing by BACE1, to a similar degree as PTPσ depletion
